Results on two compounds are retold here after patent US9549941B2, “Compositions and methods for treating hepatitis C virus” (priority 2011, dated 2017).

Data set [1] is described as follows: Moisture sorption of GS-7977 Form 6. It counts as physicochemical. From the text: (§1) In one aspect, the disclosed composition comprises polymorphic Form 6 of GS-7977.
Data set [2] is described as follows: Chemical stability of GS-7977 Form 6 on open storage. It counts as physicochemical. The settings on record: opened conditions at 40° C./75% RH for 30 days.
Text: as §1

Data set [3] has as its system 1a-H77 sub-genomic replicon, NS5B S282T. In words: microbe, parasite or virus in culture. As to conditions: Hepatitis C virus, read-out: EC50 S282T. It counts as cell-based, hepatitis C virus. On the procedure: (§2) (Lam et al., J. Virology (2011) 85(23): 12334-12342; Lam et al., Antimicrob. Agents Chemother. (2012) 56(6): 3359-3368.) S282T mutations in NS5B were created by site-directed mutagenesis in 1a-H77, 1b con-1, and 2a JFH1 sub-genomic replicons. 1b con-1-based chimeric replicons containing 2b, 3a, 4a, 5a, or 6a NS5B were also engineered to harbor the S282T mutation. […] Relative percentages of mutant and WT were assessed by deep sequencing.

Data set [4] relates to 1a-H77 sub-genomic replicon, wild-type NS5B. Put plainly: Transient replicon assay. It counts as cell-based. The settings on record: Hepatitis C virus, read-out: EC50 WT. On the procedure: as §2
On the technique in general: Replicon systems follow genome replication, usually without infectious particles.

Data set [5] has as its system 1b con-1-based chimeric replicon containing 5a NS5B, wild-type. Put plainly: Transient replicon assay. The data set is classed as cell-based. The settings on record: Hepatitis C virus, read-out: EC50 WT. How it is done: as §2
The subject of data set [6] is 1b con-1-based chimeric replicon containing 6a NS5B, wild-type. Put plainly: Transient replicon assay. The settings on record: Hepatitis C virus, read-out: EC50 WT. It counts as cell-based. On the procedure:
as §2

Data set [7] concerns mixture of 50% S282T and 50% WT in GT2a replicons. In words: Long-term passaging study with deep sequencing. It counts as cell-based, hepatitis C virus. The settings on record: after fifteen days. From the text: In vitro studies have shown that S282T is the primary mutation selected by GS-7977 in HCV genotype 1a, 1b and 2a replicon cells. (Lam et al., J. Virology (2011) 85(23): 12334-12342; Lam et al., Antimicrob. Agents Chemother. (2012) 56(6): 3359-3368.) S282T mutations in NS5B were created by site-directed mutagenesis in 1a-H77, 1b con-1, and 2a JFH1 sub-genomic replicons. 1b con-1-based chimeric replicons containing 2b, 3a, 4a, 5a, or 6a NS5B were also engineered to harbor the S282T mutation. […] Relative percentages of mutant and WT were assessed by deep sequencing.
(See also Han et al., 63rd Annual Meeting of the American Association for the Study of Liver Diseases, Poster 1078, Nov. 11, 2012.)

A further data set relates to Hepatitis C virus. The settings on record: ribavirin alone, patients with CHC; cited from earlier work.

On to `CC(C)OC(=O)[C@H](C)N[P@](=O)(OC[C@H]1O[C@@H](n2ccc(=O)[nH]c2=O)[C@](C)(F)[C@@H]1O)Oc1ccccc1` [Form 6], for which, in data set [1], the hygroscopicity result is recorded as “not hygroscopic”. Also, the moisture sorption result in data set [1] (room temperature and 90% RH) is “less than 0.2%”. Also, the chemical stability result in data set [2] is “chemically stable”.

Usually EC50 stands for the concentration needed to bring the measured effect to its halfway point. For `NC(=O)c1ncn([C@@H]2O[C@H](CO)[C@@H](O)[C@H]2O)n1` [Ribavirin, 1-β-D-ribofuranosyl-1H-1,2,4-triazole-3-carboxamide, reference compound], the EC50 in data set [3] was found to be 5 nM; in data set [4], 21 nM; in data set [5], 1.9 nM; in data set [6] it was 5.3 nM. Besides, the “population WT” value in data set [7] is recorded as 96%. Also, in the data set with Hepatitis C virus, the “effect on HCV RNA levels” value was “did not reduce HCV RNA levels during or after therapy”.
